Reference: publication PMC4721062, “Oxadiazole-2-oxides may have other functional targets, in addition to SjTGR, through which they cause mortality in Schistosoma japonicum” (Parasites & Vectors, 2016)
Where two headings read alike, the source gives them in different places.

Key:
[1] = target: T1, recombinant SjTGR (Schistosoma japonicum, UniProt B5THG7); test: Inhibition of TrxR activity of recombinant SjTGR (DTNB assay); type: biochemical; settings: 50 nM SjTGR, 1 mM NADPH, 15 min preincubation, DTNB reduction; for IC50: read-out: IC50 of SjTGR
T1 sequence (B5THG7 1-596): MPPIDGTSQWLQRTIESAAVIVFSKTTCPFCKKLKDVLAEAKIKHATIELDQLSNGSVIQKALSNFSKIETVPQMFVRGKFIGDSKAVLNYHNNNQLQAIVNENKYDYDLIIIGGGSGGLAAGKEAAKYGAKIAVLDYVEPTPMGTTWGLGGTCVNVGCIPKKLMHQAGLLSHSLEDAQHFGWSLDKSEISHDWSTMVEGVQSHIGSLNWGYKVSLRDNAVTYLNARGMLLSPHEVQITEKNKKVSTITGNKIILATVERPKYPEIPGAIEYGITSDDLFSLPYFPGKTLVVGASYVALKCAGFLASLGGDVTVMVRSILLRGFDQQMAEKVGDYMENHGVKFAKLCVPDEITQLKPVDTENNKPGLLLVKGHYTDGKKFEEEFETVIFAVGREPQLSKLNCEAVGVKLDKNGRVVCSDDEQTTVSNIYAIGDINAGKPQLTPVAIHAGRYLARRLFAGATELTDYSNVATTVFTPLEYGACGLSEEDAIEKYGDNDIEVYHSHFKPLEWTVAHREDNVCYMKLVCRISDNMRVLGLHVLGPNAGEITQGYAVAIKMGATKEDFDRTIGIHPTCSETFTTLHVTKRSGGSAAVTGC
Method: The purified recombinant SjTGR proteins were produced according to the method described by Song et al.. The inhibition of TrxR activity by the recombinant SjTGR was performed as reported by Rai et al.. Briefly, 50 nM SjTGR and 1 mM NADPH were incubated with different concentrations of oxadiazole-2-oxides (2, 4, 6, 10, 20 μM) for 15 min at room temperature. Then, potassium phosphate buffer (pH 7.4) containing 10 mM EDTA, 100 μM NADPH, and 3 mM DTNB was added to start the reaction. The increase of absorbance at 412 nm was monitored during the first 2 min. All assays were done in triplicate.
50 nM SjTGR and 1 mM NADPH were incubated with different concentrations of oxadiazole-2-oxides (2, 4, 6, 10, 20 μM) for 15 min at room temperature. Then, potassium phosphate buffer (pH 7.4) containing 10 mM EDTA, 100 μM NADPH, 3 mM DTNB was added to start the reaction. The increase in absorbance at 412 nm was monitored during the first 2 min. All assays were done in triplicate. Results shown are the mean ± SD (n = 3)

[2] = tested on: adult S. japonicum; test: microbe, parasite or virus in culture; type: cell-based; settings: for killing at 25 µM / killing at 50 µM / killing at 100 µM / mortality at 25 µM: Schistosoma japonicum; for mortality at 25 µM: read-out: Mortality of adult worms
Source text: ICR mice (20–22 g), were obtained from the Shanghai Sub-Center of Experimental Animals, Chinese Academy of Sciences. They were maintained at the Department of Experimental Animals, Jiangsu Institute of Parasitic Diseases. To infect each mouse, its abdominal skin was exposed to 50 S. japonica cercariae. All of the mice were executed to collect S. japonica adult worms, through portal vein perfusion, 35 days post-infection. The adult S. japonica collected were washed with RPMI 1640 medium and then kept in RPMI 1640 medium (pH 7.5) with HEPES 20 mM, penicillin (100 IU/mL), streptomycin ([…]) and 10 % fetal bovine serum. Then, two pairs of adult worms were transferred into each well of a 24-well culture plate, with 2 mL of the same medium. The worms were cultured at 37 °C in a humid atmosphere with 5 % CO2.
Adult worms were cultured in a 24-well culture plate for 30–60 min at 37 °C, in a humid atmosphere with 5 % CO2. Then, oxadiazole-2-oxides at different concentrations (10, 25, 50, 100 μM) were added. Equal volumes of RPMI 1640 or DMSO were applied as negative controls, while PZQ was applied as a positive control. The adult worm mobility and parasite survival rates were monitored using an inverted phase contrast microscope, at 24, 48 and 72 h. Parasite death was defined as there being no motor activity during 2 min of continuous observation, and morphological and tegumental alterations. All assays were repeated three times.
^b Data collected by visual examination of worm movement and shape; n.e. […] The data presented are the average of three independent experiments.

[3] = tested on: juvenile S. japonicum; test: microbe, parasite or virus in culture; type: cell-based; settings: for Killing activity 24hr / Killing activity 48hr / Killing activity 72hr: 10 μM
Method: Infected Oncomelania hupensis, provided by the Department of Snail Biology, Jiangsu Institute of Parasitic Diseases, were incubated at 25–28 °C, under illumination, for 2 h to hatch S. japonicum cercariae. The cercariae were collected from the water surface with clean cover glass and placed into a centrifuge tube using pre cooled RPMI 1640. Centrifugation was performed for 1 min at 1500 rpm, and then the steps above were repeated. After centrifugation, the supernatant solution was removed. The cercariae at the bottom were washed twice and resuspended with RPMI 1640. Approximately 20–30 cercariae (1 mL of the resuspension medium) were added to one well in a 24-well culture plate. They were incubated overnight at 37 °C with 5 % CO2. The survival rates and number of tails shed were observed under an inverted microscope. Cercariae that had shed their tails were used as juvenile S. japonicum.
20–30 juvenile worms were transferred into each well of a 24-well culture plate, containing 2 mL RPMI 1640 medium, 20 mM HEPES, 100 IU/mL penicillin, […] streptomycin and 10 % fetal bovine serum. Then, oxadiazole-2-oxides (2, 5, 10, and 50 μM), diluted with the RPMI 1640 medium, were added to their allocated wells. The worms in the negative control wells were treated with equal volumes of RPMI 1640 or DMSO and worms treated with AS were observed as positive controls. The juvenile worms’ survival rates were observed under an inverted phase contrast microscope (Leica, Wetzlar, Germany) at 24, 48 and 72 h. Parasite death was defined as an unclear internal structure of the juvenile worms, with incomplete tegument and contents overflowing radially, or unclear internal structure with complete tegument, but having no motor activity during 1 min of continuous observation. All assays were repeated three times.
^b Data collected by visual examination of worm movement and shape; % D = The number of worms dead / The total number of worms observed, and worms dead judged by unclear internal structure of juvenile worms with uncompleted tegument, and contents overflowing radially, or unclear internal structure with complete tegument, but having no motor activity during 1 min of continuous observation. The data presented are the average of three independent experiments.

[4] = 24 h, read-out: Killing activity 24hr
[5] = 48 h, read-out: Killing activity 48hr
[6] = 72 h, read-out: Killing activity 72hr
[7] = Schistosoma japonicum, 24 h, read-out: Killing activity 24hr
[8] = Schistosoma japonicum, 48 h, read-out: Killing activity 48hr
[9] = Schistosoma japonicum, 72 h, read-out: Killing activity 72hr

In the case of N#Cc1c(-c2ccc(OCC(=O)c3ccccc3)cc2)no[n+]1[O-] [Compound 17], the “IC50 of SjTGR” value [1] is reported as “did not inhibit”, the IC50 [1] is reported as > 20 µM and the killing at 25 µM ([2]; adult worms, 25 μM, 72 h, read-out: Killing activity 72hr) is reported as 62.5%. The killing at 50 µM ([2]; adult worms, 50 μM, 48 h, read-out: Killing activity 48hr) was 40%, the killing at 50 µM ([2]; adult worms, 50 μM, 72 h, read-out: Killing activity 72hr) was 87.5% and the killing at 100 µM ([2]; adult worms, 100 μM, 48 h, read-out: Killing activity 48hr) was 57.1%. For the same compound, the killing at 100 µM ([2]; adult worms, 100 μM, 72 h, read-out: Killing activity 72hr) was 85.7%, the “Killing activity 24hr” value ([2]; adult worms, 10 μM, 24 h) was “n.e” and the “Killing activity 48hr” value ([2]; adult worms, 10 μM, 48 h) was “n.e”. The “Killing activity 72hr” value ([2]; adult worms, 10 μM, 72 h) was 50.0%D, the “Killing activity 24hr” value ([2]; adult worms, 25 μM, 24 h) was “n.e” and the “Killing activity 48hr” value ([2]; adult worms, 25 μM, 48 h) was “n.e”. For the same compound, the “Killing activity 24hr” value ([2]; adult worms, 50 μM, 24 h) was “n.e”, the “Killing activity 24hr” value ([2]; adult worms, 100 μM, 24 h) was “sluggish” and the “Mortality of adult worms” value ([2]; adult worms, 100 μM, 24 h) was “did not cause death”. For the same compound, the mortality at 50 µM ([3]; Schistosoma japonicum, 24 h, read-out: Mortality of juvenile worms) was < 30%, the killing at 2 µM ([3]; Schistosoma japonicum, juvenile worms, 2 μM, 24 h, read-out: Killing activity 24hr) was 28.1% and the killing at 2 µM ([3]; Schistosoma japonicum, juvenile worms, 2 μM, 48 h, read-out: Killing activity 48hr) was 37.5%. It also gave a killing at 2 µM ([3]; Schistosoma japonicum, juvenile worms, 2 μM, 72 h, read-out: Killing activity 72hr) of 46.9%, a killing at 5 µM ([3]; Schistosoma japonicum, juvenile worms, 5 μM, 24 h, read-out: Killing activity 24hr) of 29.2% and a killing at 5 µM ([3]; Schistosoma japonicum, juvenile worms, 5 μM, 48 h, read-out: Killing activity 48hr) of 41.7%. The killing at 5 µM ([3]; Schistosoma japonicum, juvenile worms, 5 μM, 72 h, read-out: Killing activity 72hr) was 50%, the killing at 50 µM ([3]; Schistosoma japonicum, juvenile worms, 50 μM, 24 h, read-out: Killing activity 24hr) was 45.8% and the killing at 50 µM ([3]; Schistosoma japonicum, juvenile worms, 50 μM, 48 h, read-out: Killing activity 48hr) was 60.4%. The killing at 50 µM ([3]; Schistosoma japonicum, juvenile worms, 50 μM, 72 h, read-out: Killing activity 72hr) was 72.9%, the “Killing activity 24hr” value ([3]; juvenile worms, 24 h) was 40.0%D and the “Killing activity 48hr” value ([3]; juvenile worms, 48 h) was 48.6%D. For the same compound, the “Killing activity 72hr” value ([3]; juvenile worms, 72 h) was 54.3%D.

For CC(C)CCOc1ccc(-c2no[n+]([O-])c2C#N)cc1 [Compound 18], the “IC50 of SjTGR” value [1] was “did not inhibit SjTGR”, the IC50 [1] was > 20 µM and the killing at 25 µM [2, 4] was 75%. The killing at 50 µM [2, 4] was 100%, the killing at 100 µM [2, 4] was 100% and the mortality at 25 µM ([2]; 24 h) was > 75%. It also gave a killing at 25 µM [2, 5] of 87.5%, a killing at 50 µM [2, 5] of 100% and a killing at 100 µM [2, 5] of 100%. It also gave a killing at 25 µM [2, 6] of 100%, a killing at 50 µM [2, 6] of 100% and a killing at 100 µM [2, 6] of 100%. The mortality at 25 µM ([2]; 72 h) was 100%, the “Killing activity 24hr” value ([2]; adult worms, 10 μM, 24 h) was 16.7%D and the “Killing activity 48hr” value ([2]; adult worms, 10 μM, 48 h) was 16.7%D. For the same compound, the “Killing activity 72hr” value ([2]; adult worms, 10 μM, 72 h) was 50.0%D, the killing at 2 µM [3, 7] was 24.1% and the killing at 5 µM [3, 7] was 33.8%. For the same compound, the killing at 50 µM [3, 7] was 52.4%, the killing at 2 µM [3, 8] was 29.9% and the killing at 5 µM [3, 8] was 40%. The killing at 50 µM [3, 8] was 88.1%, the killing at 2 µM [3, 9] was 35.6% and the killing at 5 µM [3, 9] was 47.5%. The killing at 50 µM [3, 9] was 100%, the “Killing activity 24hr” value ([3]; juvenile worms, 24 h) was 36.6%D and the “Killing activity 48hr” value ([3]; juvenile worms, 48 h) was 42.7%D. For the same compound, the “Killing activity 72hr” value ([3]; juvenile worms, 72 h) was 42.7%D.
